PubChem BioAssay AID252 (DTP/NCI, 2004)
Where “and” joins values, the source holds several entries; their conditions need not be identical. Equal values may be shown once. Inconclusive results and toxic doses are left out.

Test system: BDF1 mice, intracerebral L1210 leukemia, survival T/C
Assay: NCI In Vivo Anticancer Drug Screen. Data for tumor model L1210 Leukemia (intracerebral) in B6D2F1 (BDF1) mice
Details: endpoint: mean survival time, higher = longer survival
How it was run: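 Survival measured in treated and vehicle-control tumour-bearing mice; value = T/C.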

[1] = dose: 1.0 mg/kg/injection, schedule: Q01DX009 (ip), vehicle: saline
[2] = dose: 4.0 mg/kg/injection, schedule: Q01DX009 (ip), vehicle: saline

## O=NN(CCCl)C(=O)Nc1ccccc1
dose: 8.0 mg/kg/injection, schedule: Q01DX001 (ip), vehicle: carboxymethylcellulose (CMC)
  T/C: 97 % of control
dose: 12.0 mg/kg/injection, schedule: Q01DX001 (ip), vehicle: carboxymethylcellulose (CMC)
  T/C: 101 % of control
dose: 18.0 mg/kg/injection, schedule: Q01DX001 (ip), vehicle: carboxymethylcellulose (CMC)
  T/C: 107 % of control and 96 % of control
dose: 36.0 mg/kg/injection, schedule: Q01DX001 (ip), vehicle: carboxymethylcellulose (CMC)
  T/C: 95 % of control
dose: 72.0 mg/kg/injection, schedule: Q01DX001 (ip), vehicle: carboxymethylcellulose (CMC)
  T/C: 93 % of control

## CNC(=N)c1ccc(NC(=N)c2ccc(NC(=O)Nc3cccc(NC(=O)Nc4ccc(C(=N)Nc5ccc(C(=N)NC)cc5)cc4)c3)cc2)cc1
dose: 50.0 mg/kg/injection, schedule: Q01DX001 (ip), vehicle: water
  T/C: 106 % of control
dose: 75.0 mg/kg/injection, schedule: Q01DX001 (ip), vehicle: water
  T/C: 109 % of control

## CCCC(=O)NC1=C(N2CC2)C(=O)C(NC(=O)CCC)=C(N2CC2)C1=O
[1]
  T/C: 105 % of control
[2]
  T/C: 152 % of control
dose: 8.0 mg/kg/injection, schedule: Q01DX009 (ip), vehicle: saline
  T/C: 89 % of control

## COc1cc(NS(C)(=O)=O)ccc1Nc1c2ccc([N+](=O)[O-])cc2nc2c(C)cccc12
dose: 2.5 mg/kg/injection, schedule: Q01DX009 (ip), vehicle: saline
  T/C: 93 % of control
dose: 2.5 mg/kg/injection, schedule: Q01DX009 (sc), vehicle: saline
  T/C: 93 % of control
dose: 5.0 mg/kg/injection, schedule: Q01DX009 (ip), vehicle: saline
  T/C: 103 % of control
dose: 5.0 mg/kg/injection, schedule: Q01DX009 (sc), vehicle: saline
  T/C: 96 % of control
dose: 10.0 mg/kg/injection, schedule: Q01DX009 (sc), vehicle: saline
  T/C: 93 % of control

## CS(=O)(=O)OCC(O)C(O)COS(C)(=O)=O (centres undefined)
dose: 440.0 mg/kg/injection, schedule: Q01DX001 (ip), vehicle: carboxymethylcellulose (CMC)
  T/C: 92 % of control and 97 % of control
dose: 670.0 mg/kg/injection, schedule: Q01DX001 (ip), vehicle: carboxymethylcellulose (CMC)
  T/C: 101 % of control and 100 % of control
dose: 1000.0 mg/kg/injection, schedule: Q01DX001 (ip), vehicle: carboxymethylcellulose (CMC)
  T/C: 102 % of control and 100 % of control

## O=NN(CCF)C(=O)Nc1ccccc1
dose: 8.0 mg/kg/injection, schedule: Q01DX001 (ip), vehicle: other
  T/C: 120 % of control

## CS(=O)(=O)CCN(N=O)C(=N)N[N+](=O)[O-]
dose: 12.0 mg/kg/injection, schedule: Q01DX Z (ip), vehicle: carboxymethylcellulose (CMC)
  T/C: 97 % of control
dose: 24.0 mg/kg/injection, schedule: Q01DX Z (ip), vehicle: carboxymethylcellulose (CMC)
  T/C: 100 % of control
dose: 48.0 mg/kg/injection, schedule: Q01DX Z (ip), vehicle: carboxymethylcellulose (CMC)
  T/C: 109 % of control
dose: 96.0 mg/kg/injection, schedule: Q01DX Z (ip), vehicle: carboxymethylcellulose (CMC)
  T/C: 90 % of control

## CCOC1=C(N2CC2)C(=O)C(OCC)=C(N2CC2)C1=O
dose: 0.25 mg/kg/injection, schedule: Q01DX009 (ip), vehicle: saline
  T/C: 96 % of control
dose: 0.5 mg/kg/injection, schedule: Q01DX009 (ip), vehicle: saline
  T/C: 109 % of control and 93 % of control
[1]
  T/C: 108 % of control and 98 % of control
dose: 2.0 mg/kg/injection, schedule: Q01DX009 (ip), vehicle: saline
  T/C: 112 % of control
[2]
  T/C: 94 % of control

## OCCOCCN1CCN(CCCN2c3ccccc3Sc3ccc(C(F)(F)F)cc32)CC1
dose: 18.7 mg/kg/injection, schedule: Q04DX003 (ip), vehicle: saline
  T/C: 106 % of control
dose: 37.5 mg/kg/injection, schedule: Q04DX003 (ip), vehicle: saline
  T/C: 106 % of control
dose: 75.0 mg/kg/injection, schedule: Q04DX003 (ip), vehicle: saline
  T/C: 106 % of control

## O=c1[nH]c(=O)n(C2CC(O)C(CO)O2)cc1F (centres undefined)
dose: 86.0 mg/kg/injection, schedule: Q01DX015 (ip), vehicle: saline
  T/C: 160 % of control
dose: 239.0 mg/kg/injection, schedule: Q01DX001 (ip), vehicle: saline
  T/C: 109 % of control
dose: 364.0 mg/kg/injection, schedule: Q01DX001 (ip), vehicle: saline
  T/C: 104 % of control
dose: 543.0 mg/kg/injection, schedule: Q01DX001 (ip), vehicle: saline
  T/C: 117 % of control

## CN(N=O)C(=O)NC(N)=O
dose: 33.0 mg/kg/injection, schedule: Q01DX001 (ip), vehicle: carboxymethylcellulose (CMC)
  T/C: 102 % of control
dose: 50.0 mg/kg/injection, schedule: Q01DX001 (ip), vehicle: carboxymethylcellulose (CMC)
  T/C: 105 % of control
dose: 75.0 mg/kg/injection, schedule: Q01DX001 (ip), vehicle: carboxymethylcellulose (CMC)
  T/C: 114 % of control
dose: 112.0 mg/kg/injection, schedule: Q01DX001 (ip), vehicle: carboxymethylcellulose (CMC)
  T/C: 115 % of control
